# Measurements taken from US10517913B2, “Composition for prevention, alleviation, or treatment of peripheral neuropathy comprising Lithospermi Radix extract as an effective component” (priority 2015, dated 2019).
# Experiments:
# PC-12 cells = test: NGF-induced neurite growth, quantitative image analysis; format: cell-based; settings: 200 nM oxaliplatin, NGF 100 ng/ml, 3 days
# Procedure: PC-12 was purchased from the ATCC (USA). The cells were cultured in a 100 mm cell culture dish coated with collagen type I in an incubator at 37° C., 5% CO2, using a DMEM basal medium supplemented with 5% non-heat inactivated fetal bovine serum (FBS), 10% heat inactivated horse serum (HS), 100 unit/ml penicillin, and 100 μg/ml streptomycin. The basal medium, sera, and other additives were purchased from the Thermo Fisher Scientific.
# Specifically, PC-12 cells cultured according to [Materials and Methods 3-1] were evenly plated at 1×10^4 cells/well on a 24-well plate coated with collagen type IV in a DMEM growth medium where the cells were allowed to adhere on the bottom of the plate. After 12 hours, the medium was exchanged with a serum-free DMEM medium containing 100 ng/ml nerve growth factor (NGF) to induce neurite growth. The cells were treated with 200 nM oxaliplatin (Oxal) to induce neurotoxicity. Cells were co-treated with the Lithospermi Radix extract (WLR) prepared according to [Materials and Methods 1] at concentrations of 25 and 100 μg/ml, and amifostine (Ami) at 500 μM as a positive control. After 3 days, the ratios of cells forming neurites and the lengths of the neurites were quantified using image analysis under an optical microscope.
# [1] = test system: astrocytes and microglial cells in spinal cord of peripheral neuropathic animals induced by oxaliplatin; test: Immunohistological analysis of glial cells (GFAP, Iba-1) in lumbar spinal cord; format: in vivo, C57BL/6 mice; settings: oxaliplatin 10 mg/kg; lumbar spinal cord dorsal horn
# From the text: (§1) In the present invention, an animal model having peripheral neuropathy was induced by oxaliplatin. Eight-week old male C57BL/6 mice were purchased from the OrientBio. Following 1 week acclimation period in a cage in an animal test room, the base line (BL) of responses of experimental animals to 3 times of mechanical stimulations applied to the right hind footpad of the animal using von Frey filament hair. Then, the animals were divided into different groups (N=8 animals/group). Peripheral neuropathy was induced by injection of 5 mg/kg oxaliplatin through tail veins of animals (once a week, 2 times for 2 weeks, i.e., 10 mg/kg oxaliplatin in total). Oxaliplatin was purchased from the LC Laboratories.
# The specimens were prepared to histologically determine the protective effect of the Lithospermi Radix extract (WLR) against neuronal damage in peripheral neuropathic animals induced by oxaliplatin. Specifically, the animal was anaesthetized by intraperitoneal injection of sodium pentobarbital (50 mg/kg), and then, blood was removed by perfusion of 0.9% physiological saline through the aorta via left ventricle. Following fixation by perfusion of 4% paraformaldehyde solution buffered with 0.1 M phosphate, the 4th to 6th lumbar spinal cords, dorsal root ganglia, and the hind footpad skins were removed. The tissues were further fixed in the same fixation solution as above. The paraffin-embedded tissues were sectioned at a 4 μm thickness. The slices were mounted on a glass slide, dried, and then, kept at room temperature until use.
# The slice of spinal cord with 4 μm thickness was subjected to immunofluorescence staining using antibodies against GFAP and Iba-1 which are astrocyte and microglial cell markers, respectively. After removal of paraffin and hydration, the slice was immersed in citrate buffer solution (Vector Lab., USA) for 10 minutes in a microwave to recover antigenicity and increase reactivity. […]
# The activity of the glial cells was expressed by the ratio (%) of the area of stained cells relative to the viewing area under a fluorescence microscope. The fluorescence microscopic images were analyzed compared to the control treatment using a software (Cellsense, Olympus).
# Specifically, peripheral neuropathy was induced in male C57BL/6 mice by oxaliplatin (10 mg/kg) according to [Materials and Methods 4]. […] Using the obtained specimen, activation of astrocytes and microglial cells in dorsal horn areas of the lumbar spinal cord of the animals was measured by detecting GFAP and Iba-1 marker proteins, respectively, according to [Materials and Methods 6-2]. Distribution of intraepidermal nerve fiber (IENF) in the hind footpad skin was measured by detecting PGP9.5 marker protein according to [Materials and Methods 6-3].
# [2] = test system: intraepidermal nerve fiber (IENF) of peripheral neuropathic animals induced by oxaliplatin; test: Quantitative histological analysis of intraepidermal nerve fiber (PGP9.5) in hind footpad skin; format: in vivo, C57BL/6 mice; settings: oxaliplatin 10 mg/kg
# From the text: as §1, with “Laboratories. […]” for “Laboratories.”
# The slice of hind footpad skin with 4 μm thickness was subjected to immunofluorescence staining using a PGP9.5 antibody, a marker for IENF in skin. […] The expression level of intraepidermal nerve fibers was expressed by the number of fluorescence-stained nerves in epidermis which were stemmed from dermis per field length of the basal membrane of epidermis (IENF/mm) within a viewing area under a fluorescence microscope. The fluorescent microscopic images were analyzed compared with control treatment using a software (Cellsense, Olympus). […]
smiles,measurement,setting,value
O=C1[O][Pt]2([NH][C@@H]3CCCC[C@H]3[NH]2)[O]C1=O [oxaliplatin],neurite growth induced by nerve growth factor (NGF),PC-12 cells,inhibited
same,number of activated astrocytes (GFAP positive cells),[1],increased
same,number of activated microglial cells (Iba-1 positive cells),[1],increased
same,densities of intraepidermal nerve fibers in hind footpad skin,[2],reduced
